Assay: Sympatec laser diffraction particle size of micronized medicament
Format: physicochemical
Conditions: Sympatec laser diffraction instrument; micronized starting material of Example 10
Protocol: A stock solution of 16.0 g of ethanol USP and 0.0053 g of oleic acid was prepared. Into each of three 14-mL fluoropolymer (FEP-PES) coated aluminum canisters was added 7 mg of micronized salmeterol xinafoate, having a volume mean diameter (X50) of 1.6 μm as measured using a Sympatec laser diffraction instrument. To each canister was then added 10.0 g of HFA-134a, at about −70° C., and approximately 0.20 g of the stock solution. A 50-μL metering valve was crimp sealed to each canister. Each canister was sonicated for 1.5 minutes to promote mixing of the formulation and deaggregation of the medicament particles.

volume mean diameter (X50): 1.6 μm
SMILES: OCc1cc(C(O)CNCCCCCCOCCCCc2ccccc2)ccc1O (stereo not shown) [micronized salmeterol xinafoate, salmeterol xinafoate]

Source: patent US9808423B2, “Preparation of suspension aerosol formulations” (Generics [UK] Limited, priority 2004, dated 2017)
